Experimental data reported in the supplement of paper PMC10307832.

Key:
Assay in all cases: relative viability (nuclei count vs DMSO), 5 days (fraction); higher = more cells survive
[1] = compound: C1COCCN1C2=NC(=NC3=C2OC4=C3C=CC=N4)C5=CC(=CC=C5)NC(=O)C6=CN=C(C=C6)N + CS(=O)(=O)CCNCc1ccc(-c2ccc3ncnc(Nc4ccc(OCc5cccc(F)c5)c(Cl)c4)c3c2)o1 [Lapatinib] (partner 2 µM)
Procedure, shortened: (§1)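 Relative viability divides the nuclei count in treated wells by that in vehicle wells. Lung cancer cell lines were seeded in 1536-well plates, dosed by pin tool the next day, and fixed and stained after 5 days in one step with final 0.05% Triton X-100, 1% formaldehyde and 1 ug/ml Hoechst. Dosing was a single drug or a fixed anchor-drug dose plus five library-drug doses (not always all listed) in √10 steps, and values are medians of duplicate plates imaged at 4×.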

SGI-1776 + Linsitinib = compound: CN1CCC(CNc2ccc3ncc(-c4cccc(OC(F)(F)F)c4)n3n2)CC1 [SGI-1776] + C[C@]1(O)C[C@@H](c2nc(-c3ccc4ccc(-c5ccccc5)nc4c3)c3c(N)nccn32)C1 [Linsitinib] (partner 1 µM)
Procedure, shortened: as §1

SGI-1776 + Bortezomib = compound: CN1CCC(CNc2ccc3ncc(-c4cccc(OC(F)(F)F)c4)n3n2)CC1 [SGI-1776] + CC(C)C[C@H](NC(=O)[C@H](Cc1ccccc1)NC(=O)c1cnccn1)B(O)O [Bortezomib] (partner 0.002 µM)
Procedure, shortened: as §1

[2] = compound: C1COCCN1C2=NC(=NC3=C2OC4=C3C=CC=N4)C5=CC(=CC=C5)NC(=O)C6=CN=C(C=C6)N + CC1(C)CCC(c2ccc(Cl)cc2)=C(CN2CCN(c3ccc(C(=O)NS(=O)(=O)c4ccc(N[C@H](CCN5CCOCC5)CSc5ccccc5)c(S(=O)(=O)C(F)(F)F)c4)cc3)CC2)C1 [Navitoclax] (partner 0.5 µM)
Procedure, shortened: as §1

Cell Line | relative viability ([1]; first compound 0.02 µM) | relative viability ([1]; first compound 0.06325 µM) | relative viability ([1]; first compound 0.2 µM) | relative viability ([1]; first compound 0.6325 µM) | relative viability ([1]; first compound 2 µM) | relative viability (SGI-1776 + Linsitinib; first compound 0.08 µM) | relative viability (SGI-1776 + Linsitinib; first compound 0.8 µM) | relative viability (SGI-1776 + Linsitinib; first compound 2.53 µM) | relative viability (SGI-1776 + Linsitinib; first compound 8 µM) | relative viability (SGI-1776 + Bortezomib; first compound 0.08 µM) | relative viability (SGI-1776 + Bortezomib; first compound 0.8 µM) | relative viability (SGI-1776 + Bortezomib; first compound 2.53 µM) | relative viability (SGI-1776 + Bortezomib; first compound 8 µM) | relative viability ([2]; first compound 0.02 µM) | relative viability ([2]; first compound 0.06325 µM) | relative viability ([2]; first compound 0.2 µM) | relative viability ([2]; first compound 0.6325 µM) | relative viability ([2]; first compound 2 µM)
NCI-H1437 | 0.801 | 0.952 | 0.746 | 0.794 | 0.327 | 1.03 | 1.03 | 0.952 | 0.452 | 0.587 | 0.525 | 0.536 | 0.352 | 1.15 | 1.16 | 1.04 | 1.08 | 0.563
EKVX | 0.189 | 0.181 | 0.221 | 0.215 | 0.207 | 1.1 | 0.985 | 1.01 | 0.863 | 0.98 | 1.05 | 1.14 | 0.972 | 1.17 | 0.939 | 0.944 | 0.805 | 0.684
NCI-H460 | 0.907 | 1.12 | 1.11 | 0.578 | 0.0915 | 0.683 | 0.859 | 0.785 | 0.459 | 1.18 | 1.2 | 1.11 | 0.82 | 1.38 | 1.47 | 1.19 | 0.957 | 0.0442
NCI-H1993 | 0.787 | 0.822 | 0.841 | 0.826 | 0.814 | 0.755 | 0.76 | 0.78 | 0.645 | 1.21 | 1.14 | 0.967 | 0.803 | 0.819 | 1.06 | 0.822 | 0.874 | 0.763
HCC-78 | 0.671 | 0.792 | 0.767 | 0.762 | 0.72 | 0.582 | 0.432 | 0.449 | 0.403 | 0.48 | 0.516 | 0.516 | 0.45 | 0.709 | 0.728 | 0.906 | 0.769 | 0.645
NCI-H2087 | 1.11 | 1.09 | 1.07 | 0.997 | 0.807 | 0.913 | 0.863 | 1.09 | 1.12 | 0.772 | 0.802 | 0.982 | 0.722 | 1.02 | 1.03 | 0.925 | 0.918 | 0.608
H3255 | 0.241 | 0.238 | 0.23 | 0.238 | 0.293 | 1.1 | 1.04 | 0.921 | 0.792 | 0.963 | 0.75 | 0.606 | 0.33 | 0.54 | 0.553 | 0.533 | 0.421 | 0.467
NCI-H2126 | 0.729 | 0.754 | 0.722 | 0.776 | 0.67 | 0.731 | 0.731 | 0.684 | 0.695 | 1.15 | 1.18 | 1.04 | 1.13 | 0.872 | 0.828 | 0.9 | 0.839 | 0.763
LCLC-103H |  |  |  |  |  | 1.07 | 0.972 | 1.1 | 0.979 | 1.06 | 1.05 | 1.01 | 0.859 |  |  |  |  | 
